How the values were obtained:
[1] = test system: A2780 cells; assay: microculture tetrazolium (MTT) cytotoxicity assay, A2780; assay type: cell-based, human; conditions: for IC50: read-out: 50% cell kill (IC50)
Method: (§1) Human ovarian cancer A2780 and A2780/CP70 cells were cultured in monolayer using RPMI 1640 media supplemented with 10% fetal calf serum, 2 mM L-glutamine, 0.2 U insulin/ml, 100 U/ml penicillin, and 100 μg/ml streptomycin (GIBCO, Grands Island, N.Y.). Cells were grown in a humidified chamber containing a mixture of 5% CO2 and ambient air at 37° C. Sensitivity of A2780 and A2780/CP70 cells to Cd and to cisplatin was assessed by microculture tetrazolium (MTT) assay, as described by Alley et al. Briefly, cells were plated at 1000 cells/well in 96-well plates and drug exposure was made the following day. Cadmium dichloride was initially dissolved in double distilled water (Dh2O) at 1.0 mg/ml (5.46 Mm Cadmium), and dilutions from this solution were made in media to obtain the desired drug treatment concentrations of 1 μM, 10 μM, 20 μM, 40 μM, 100 μM, 150 μM and 200 μM. Cisplatin was dissolved in PBS without Ca^++ or Mg^++ at 1.0 mg/ml (3.33 Mm cisplatin), and dilutions from this solution was made in media to obtain the desired drug treatment concentrations of ranging from 1 μM to 300 μM. Drug treatments were for 1 hour.
(§2) After drug treatments, cells were washed twice with PBS without Ca^++ or Mg^++, treated with fresh drug-free media, and incubated for 5 days. On day 5 after drug treatment, 50 microliter of 3-(4,5-dimethylthiazol-2-yl)-2,5 diphenyltetrazolium bromide (MTT) (400 mg in 200 ml of PBS) were added to each well and incubated for 4 hours at 37° C. Analysis of optical density readings were performed using the VV Deltasoft program on a Macintosh computer (Apple, Inc., Palo Alto, Calif.) and percentage cell growth values were obtained.

[2] = test system: A2780/CP70 cells; assay type: cell-based, human; conditions: for IC50: read-out: 50% cell kill (IC50)
Method: as §1, §2

[3] = test system: A2780 cells; assay: cellular Cd accumulation after 1 hour exposure to a range of Cd doses (AAS), A2780; assay type: cell-based, human
Method: We examined the cellular Cd accumulation following 1 hour exposures to a range of Cd doses. Cells were grown in T-150 flasks (Costar, Cambridge, Mass.) to 60-80% confluence and then exposed to 10 μM, 50 μM, 100 μM and 200 μM Cd for 1 hour. Cells were harvested, immediately counted and then “wet-ashed” [20]. Total cellular Cd accumulation was measured by atomic absorption spectrometry with Zeeman background correction (AAS), and assessed as nanograms of Cd per million cells (ng Cd/10^6 cells)

[4] = test system: A2780 cells; assay: cellular drug accumulation and efflux at IC50 dose (AAS), A2780; assay type: cell-based, human; conditions: for ASSOCIATED DRUG / PERCENT REMOVED (efflux) / PERCENT ACCUMULATION / DRUG UPTAKE: A2780; for PERCENT ACCUMULATION: IC50 dose; for DRUG UPTAKE: IC50 dose 58 μM
Method: (§3) Cells were harvested at time points of 15, 30, 45, and 60 minutes during 1 hour drug exposures, and at 1 and 3 hours after drug exposure. Cells were immediately counted and then wet-ashed. Total cellular drug. accumulation was measured by AAS, and assessed as both nanograms of Cd per million cells (ng Cd/10^6 cells) and as the percentage of the highest levels of total cellular drug.

[5] = test system: A2780/CP70 cells; assay: cellular drug accumulation and efflux at IC50 dose (AAS), A2780/CP70; assay type: cell-based, human; conditions: for PERCENT ACCUMULATION: IC50 dose; for DRUG UPTAKE: IC50 dose 128 μM
Method: as §3

[6] = test system: cellular DNA of A2780/CP70 cells; assay: Cd-DNA adduct formation after 1 hour exposure to a range of Cd doses (AAS), A2780/CP70; assay type: cell-based, human
Method: We examined the formation of Cd-DNA adduct in cellular DNA following 1 hour exposures to a range of Cd drug doses. Cells were grown in T-150 flasks (Costar, Cambridge, Mass.) to 60-80% confluence and then exposed to 0 μM (control), 10 μM, 50 μM, 100 μM and 200 μM Cd for 1 hour. Following a 1 hour drug exposure, cells were washed twice with cold PBS, harvested, and frozen immediately at −20° C. until DNA isolation. Total cellular DNA was isolated on cesium chloride density gradients. DNA was dialyzed against Dh2O with 3-4 changes over 36-48 hours, and quantitated by absorbance at 260 nm. Total Cd per unit DNA was measured by AAS.

[7] = test system: cellular DNA of A2780 cells; assay: Cd-DNA adduct formation and repair after IC50 exposure (AAS), A2780; assay type: cell-based, human
Method: (§4) We examined the formation and removal of Cd-DNA adduct in cellular DNA following 1 hour drug exposures. […] An aliquot of cells was harvested before drug treatment (time zero). Following a 1 hour drug exposure, cells were washed and harvested at. the following time points: 0 hour (immediately at the end of Cd exposure), 1 hour, 6 hour, and 24 hours. Cells were frozen immediately at −20° C. until DNA isolation. Total cellular DNA was isolated and assayed as described above, and total Cd per unit DNA was measured by AAS.

[8] = test system: cellular DNA of A2780/CP70 cells; assay: Cd-DNA adduct formation and repair after IC50 exposure (AAS), A2780/CP70; assay type: cell-based, human
Method: as §4

[9] = test system: liver and lung tumors in B6C3F1 mice; conditions: single dose of NDEA followed by cadmium chloride in the drinking water; cited from earlier work
[10] = A2780 cells, 1 hour exposure, MTT
[11] = A2780/CP70 cells, 1 hour exposure, MTT
[12] = 0 hours after 1 hour IC50 exposure
[13] = 1 hour after 1 hour IC50 exposure
[14] = 3 hours after 1 hour IC50 exposure
[15] = 3 hours after 1 hour IC50 exposure, listed as Cadmium

## N.N.[Cl][Pt][Cl] [cisplatin, reference compound]
[1]; [10]
  IC50: 16 µM
[1]; on a μM basis, 50% cell kill
  A2780 cells more sensitive to cisplatin than to Cd: 3.6 fold
[2]; [11]
  IC50: 160 µM
[2]; drug exposures associated with 50% cell kill
  increase in resistance of A2780/CP70 cells as compared to A2780 cells: 10 fold

## [Cl][Cd][Cl] [Cd, Cadmium dichloride]
[1]; [10]
  10% cell kill: 0.45 µM
  90% cell kill: 130 µM
  IC50: 58 µM
[2]; [11]
  10% cell kill: 28 µM
  90% cell kill: 195 µM
  IC50: 128 µM
[2]; compared with 10-fold resistance to cisplatin
  level of cross-resistance of A2780/CP70 cells to Cd: approximately equal level
[2]; on a μM basis, 50% cell kill
  A2780/CP70 cells more sensitive to Cd (than to cisplatin): 1.25 fold
[3]; A2780 cells, 1 hour exposure, up to 200 μM
  slope of linear regression, cellular Cd versus Cd dose: 0.024
[3]; from slopes of linear regression
  more cellular drug accumulated per unit dose, A2780 versus A2780/CP70: 4.9 fold
[4]; [12]
  ASSOCIATED DRUG: 20.85 ± 4.4 ng Cd/10^6 Cells
[4]; 0 hours after exposure
  PERCENT REMOVED (efflux): 90%
[4]; 15 minutes
  PERCENT ACCUMULATION: 33%
  DRUG UPTAKE: 6.89 ± 0.53 ng Cd/10^6
[4]; 30 minutes
  PERCENT ACCUMULATION: 47%
  DRUG UPTAKE: 9.83 ± 1.06 ng Cd/10^6
[4]; 45 minutes
  PERCENT ACCUMULATION: 60%
  DRUG UPTAKE: 12.47 ± 1.95 ng Cd/10^6
[4]; [13]
  ASSOCIATED DRUG: 12.74 ± 3.74 ng Cd/10^6 Cells
[4]; 1 hour after exposure
  PERCENT REMOVED (efflux): 30%
[4]; 60 minutes
  PERCENT ACCUMULATION: 100%
  DRUG UPTAKE: 20.85±4.49 ng Cd/10^6
[4]; 60 minutes, listed as Cadmium
  DRUG UPTAKE: 20.85 ± 4.49 ng Cd/10^6
[4]; [14]
  ASSOCIATED DRUG: 6.56±0.58 ng Cd/10^6 Cells
[4]; [15]
  ASSOCIATED DRUG: 6.56 ± 0.58 ng Cd/10^6 Cells
[4]; 3 hours after exposure
  PERCENT REMOVED (efflux): 69%
[4]; from slopes, respective IC50 doses
  greater rate of Cd accumulation, A2780 versus A2780/CP70: 2.8 fold
[5]; [12]
  ASSOCIATED DRUG: 6.61 ± 1.4 ng Cd/10^6 Cells
[5]; 0 hours after exposure
  PERCENT REMOVED (efflux): 80%
[5]; 15 minutes
  PERCENT ACCUMULATION: 10%
  DRUG UPTAKE: 0.65 ± 0.16 ng Cd/10^6
[5]; 30 minutes
  PERCENT ACCUMULATION: 46%
  DRUG UPTAKE: 3.03 ± 1.11 ng Cd/10^6
[5]; 45 minutes
  PERCENT ACCUMULATION: 66%
  DRUG UPTAKE: 4.33 ± 2.02 ng Cd/10^6
[5]; [13]
  ASSOCIATED DRUG: 4.08 ± 1.4 ng Cd/10^6 Cells
[5]; 1 hour after exposure
  PERCENT REMOVED (efflux): 38%
[5]; 60 minutes
  PERCENT ACCUMULATION: 100%
  DRUG UPTAKE: 6.61±1.48 ng Cd/10^6
[5]; 60 minutes, listed as Cadmium
  DRUG UPTAKE: 6.61 ± 1.48 ng Cd/10^6
[5]; [14]
  ASSOCIATED DRUG: 2.08±0.92 ng Cd/10^6 Cells
[5]; [15]
  ASSOCIATED DRUG: 2.08 ± 0.92 ng Cd/10^6 Cells
[5]; 3 hours after exposure
  PERCENT REMOVED (efflux): 69%
[6]; FIG. 5B, A2780/CP70 versus A2780
  more DNA damage required in resistant A2780/CP70 cells to induce an equivalent level of cell kill: 5-10 lesions per million DNA bases
[6]; from slopes of the equations
  more Cd needed in A2780/CP70 to attain the same level of Cd-DNA damage as in A2780: 1.7 fold
[7]; 0 hours after 1 hour IC50 (58 μM) exposure
  Cd-DNA ADDUCT: 8.45 ± 3.59 pg Cd/μg DNA
[7]; 0 hours after IC50 exposure
  % REPAIR (amount of peak adduct removed): 0%
[7]; 1 hour after 1 hour IC50 (58 μM) exposure, peak
  Cd-DNA ADDUCT: 11.81±6.59 pg Cd/μg DNA
[7]; 1 hour after 1 hour IC50 (58 μM) exposure, peak, listed as Cadmium
  Cd-DNA ADDUCT: 11.81 ± 6.59 pg Cd/μg DNA
[7]; 1 hour after IC50 exposure
  % REPAIR (amount of peak adduct removed): no removal
[7]; 1 hour after IC50 exposure, listed as Cadmium
  % REPAIR (amount of peak adduct removed): 0%
[7]; 6 hours after 1 hour IC50 (58 μM) exposure
  Cd-DNA ADDUCT: 7.08±3.92 pg Cd/μg DNA
[7]; 6 hours after 1 hour IC50 (58 μM) exposure, listed as Cadmium
  Cd-DNA ADDUCT: 7.08 ± 3.92 pg Cd/μg DNA
[7]; 6 hours after IC50 exposure
  % REPAIR (amount of peak adduct removed): 40%
[7]; 24 hours after 1 hour IC50 (58 μM) exposure
  Cd-DNA ADDUCT: 5.28±3.11 pg Cd/μg DNA
[7]; 24 hours after 1 hour IC50 (58 μM) exposure, listed as Cadmium
  Cd-DNA ADDUCT: 5.28 ± 3.11 pg Cd/μg DNA
[7]; 24 hours after IC50 exposure
  % REPAIR (amount of peak adduct removed): 55%
[8]; 0 hours after 1 hour IC50 (128 μM) exposure, peak
  Cd-DNA ADDUCT: 15.58±3.56 pg Cd/μg DNA
[8]; 0 hours after 1 hour IC50 (128 μM) exposure, peak, listed as Cadmium
  Cd-DNA ADDUCT: 15.58 ± 3.56 pg Cd/μg DNA
[8]; 0 hours after IC50 exposure
  % REPAIR (amount of peak adduct removed): 0%
[8]; 1 hour after 1 hour IC50 (128 μM) exposure
  Cd-DNA ADDUCT: 13.31 ± 4.62 pg Cd/μg DNA
[8]; 1 hour after IC50 exposure
  % REPAIR (amount of peak adduct removed): 15%
[8]; 6 hours after 1 hour IC50 (128 μM) exposure
  Cd-DNA ADDUCT: 12.05±3.98 pg Cd/μg DNA
[8]; 6 hours after 1 hour IC50 (128 μM) exposure, listed as Cadmium
  Cd-DNA ADDUCT: 12.05 ± 3.98 pg Cd/μg DNA
[8]; 6 hours after IC50 exposure
  % REPAIR (amount of peak adduct removed): 23%
[8]; 24 hours after 1 hour IC50 (128 μM) exposure
  Cd-DNA ADDUCT: 8.47±2.85 pg Cd/μg DNA
[8]; 24 hours after 1 hour IC50 (128 μM) exposure, listed as Cadmium
  Cd-DNA ADDUCT: 8.47 ± 2.85 pg Cd/μg DNA
[8]; 24 hours after IC50 exposure
  % REPAIR (amount of peak adduct removed): 46%
[9]
  incidence and multiplicity of NDEA-induced lung tumors: reduced
  spontaneously-occurring liver tumors: eliminated

From US6676973B1, “Method of treating ovarian cancers with cadmium” (priority 1995, dated 2004)
